From PMC11994644, “In vivo quantification of [^11C]BIO-1819578 in non-human primates, a novel radioligand for O-GlcNAcase” (Journal of Cerebral Blood Flow & Metabolism, 2025)
“Also recorded” adds a separate entry of the source.

Tests used:
O-GlcNAcase (OGA) = assay: OGA occupancy after pretreatment with Thiamet-G (revisited Lassen plot); format: in vivo, cynomolgus monkey
OGA = details: cited from earlier work

Row | occupancy (O-GlcNAcase (OGA); Thiamet-G 10 mg/kg i.v. 45 minutes prior to PET, 2TCM, one NHP) | SMILES | effect of pretreatment on [^11C]BIO-1819578 distribution volume (VT) (O-GlcNAcase (OGA); Thiamet-G 10 mg/kg i.v., NHP 3) | Kd (OGA)
1 | 97.6% | CCN=C1N[C@@H]2[C@@H](O)[C@H](O)[C@@H](CO)O[C@@H]2S1 [Thiamet-G] | reduced the distribution volume in all brain regions; also recorded: decreased in all regions | 
2 |  | CC(=O)Nc1ncc(CN2CCC[C@H](N(C)c3ccc(F)cn3)C2)s1 [BIO-1819578] |  | 2.3 nM
